Data from patent US12053547B2, “Liposomal compositions and methods of use” (Alastin Skincare, Inc., priority 2018, dated 2024).

Assay: log Kow (penetration ability) of test molecules
Assay type: physicochemical
Protocol: A water suspension of liposomes was prepared with 1.5% of hydrophilic molecule A or 300 ppm (0.03%) hydrophilic molecule B, and 27% Pro-Lipo™ Neo. […] Molecule B was a hexapeptide (hexapeptide-38) with a molecular weight of (870 g/mol) and a penetration ability log Kow of −1.13. A water solution with 1.5% A or 300 ppm B was used as a control (non-entrapped molecule).

Row | Compound | penetration ability log Kow
1 | Cn1c(=O)c2c(ncn2C)n(C)c1=O [Molecule A, caffeine] | −0.07
2 | hexapeptide-38 [Molecule B] | −1.13
